Data as given in patent US11447517B2, “Galactoside inhibitor of galectins” (GALECTO BIOTECH AB, priority 2018, dated 2022).

Molecular target: galectin-3 (Homo sapiens (Human), UniProt P17931)
Assay: Fluorescence anisotropy assay, inhibition of galectin / fluorescein tagged saccharide probe interaction
Format: binding
Description: Evaluation of Kd Values The affinity of Example 1-71 for galectins were determined by a fluorescence anisotropy assay where the compound was used as an inhibitor of the interaction between galectin and a fluorescein tagged saccharide probe as described Sörme, P., Kahl-Knutsson, B., Huflejt, M., Nilsson, U. J., and Leffler H. (2004) Fluorescence polarization as an analytical tool to evaluate galectin-ligand interactions. Anal. Biochem. 334: 36-47, (Sörme et al., 2004) and Monovalent interactions of Galectin-1 By Salomonsson, Emma; Larumbe, Amaia; Tejler, Johan; Tullberg, Erik; Rydberg, Hanna; Sundin, Anders; Khabut, Areej; Frejd, Torbjorn; Lobsanov, Yuri D.; Rini, James M.; et al, From Biochemistry (2010), 49(44), 9518-9532, (Salomonsson et al., 2010). […] 100 nM albumin was included as a carrier to prevent protein loss at such low concentration of galectin.

Chain of galectin-3 (P17931 whole entry): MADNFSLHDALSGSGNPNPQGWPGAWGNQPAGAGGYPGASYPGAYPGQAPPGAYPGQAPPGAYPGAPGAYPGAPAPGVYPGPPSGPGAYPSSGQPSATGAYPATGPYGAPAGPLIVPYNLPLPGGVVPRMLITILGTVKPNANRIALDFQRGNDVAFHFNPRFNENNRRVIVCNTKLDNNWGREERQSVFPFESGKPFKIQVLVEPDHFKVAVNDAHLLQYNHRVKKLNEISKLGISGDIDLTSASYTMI

SMILES	Kd
CO[C@@H]1[C@@H](n2cc(-c3cc(F)c(F)c(F)c3)nn2)[C@@H](O)[C@@H](CO)O[C@@H]1Sc1cc(-c2nccs2)cnc1-c1nccs1 [Example 32, 2,5-Bis(thiazol-2-yl)pyridin-3-yl 3-deoxy-3-[4-(3,4,5-trifluorophenyl)-1H-1,2,3-triazol-1-yl]-2-O-methyl-1-thio-α-D-galactopyranoside]	210 nM
CO[C@@H]1[C@@H](n2cc(-c3cc(F)c(Cl)c(F)c3)nn2)[C@@H](O)[C@@H](CO)O[C@@H]1Sc1cncc(Cl)c1 [Example 33, 5-Chloropyridin-3-yl 3-[4-(4-chloro-3,5-difluorophenyl)-1H-1,2,3-triazol-1-yl]-3-deoxy-2-O-methyl-1-thio-α-D-galactopyranoside]	31 nM
CO[C@@H]1[C@@H](n2cc(-c3cc(F)c(Cl)c(F)c3)nn2)[C@@H](O)[C@@H](CO)O[C@@H]1Sc1cncc(Br)c1 [Example 34, 5-Bromopyridin-3-yl 3-[4-(4-chloro-3,5-difluorophenyl)-1H-1,2,3-triazol-1-yl]-3-deoxy-2-O-methyl-1-thio-α-D-galactopyranoside]	21 nM
CO[C@@H]1[C@@H](n2cc(-c3ccc(Cl)c(F)c3)nn2)[C@@H](O)[C@@H](CO)O[C@@H]1Sc1cncc(Cl)c1 [Example 37, 5-Chloropyridin-3-yl 3-[4-(4-chloro-3-fluorophenyl)-1H-1,2,3-triazol-1-yl]-3-deoxy-2-O-methyl-1-thio-α-D-galactopyranoside]	42 nM
CO[C@@H]1[C@@H](n2cc(-c3ccc(Cl)c(F)c3)nn2)[C@@H](O)[C@@H](CO)O[C@@H]1Sc1cncc(Br)c1 [Example 38, 5-Bromopyridin-3-yl 3-[4-(4-chloro-3-fluorophenyl)-1H-1,2,3-triazol-1-yl]-3-deoxy-2-O-methyl-1-thio-α-D-galactopyranoside]	62 nM
CO[C@@H]1[C@@H](n2cc(-c3cc(F)c(Cl)c(F)c3)nn2)[C@@H](O)[C@@H](CO)O[C@@H]1Sc1cnc(C(F)(F)F)c(C)c1 [Example 39, 6-Trifluoromethyl-5-methylpyridin-3-yl 3-[4-(4-chloro-3,5-difluorophenyl)-1H-1,2,3-triazol-1-yl]-3-deoxy-2-O-methyl-1-thio-α-D-galactopyranoside]	280 nM
CO[C@@H]1[C@@H](n2cc(-c3cc(F)c(Cl)c(F)c3)nn2)[C@@H](O)[C@@H](CO)O[C@@H]1Sc1cc(Cl)ccc1C(=O)N1CCC1 [Example 40, 2-(N-azetidinyl-carbonyl)-5-chlorophenyl 3-[4-(4-chloro-3,5-difluorophenyl)-1H-1,2,3-triazol-1-yl]-3-deoxy-2-O-methyl-1-thio-α-D-galactopyranoside]	15 nM
CO[C@@H]1[C@@H](n2cc(-c3ccc(C)c(F)c3)nn2)[C@@H](O)[C@@H](CO)O[C@@H]1Sc1cc(Cl)ccc1C(=O)N1CCC1 [Example 41, 2-(N-azetidinyl-carbonyl)-5-chlorophenyl 3-deoxy-3-[4-(3-fluoro-4-methylphenyl)-1H-1,2,3-triazol-1-yl]-2-O-methyl-1-thio-α-D-galactopyranoside]	7 nM
CO[C@@H]1[C@@H](n2cc(-c3cc(F)c(F)c(F)c3)nn2)[C@@H](O)[C@@H](CO)O[C@@H]1Sc1cncc(Cl)c1 [Example 42, 5-Chloropyridin-3-yl 3-deoxy-3-[4-(3,4,5-trifluorophenyl)-1H-1,2,3-triazol-1-yl]-2-O-methyl-1-thio-α-D-galactopyranoside]	29 nM
CO[C@@H]1[C@@H](n2cc(-c3ccc(Cl)c(C)n3)nn2)[C@@H](O)[C@@H](CO)O[C@@H]1Sc1cncc(Cl)c1 [Example 44, 5-Chloropyridin-3-yl 3-[4-(5-chloro-6-methylpyridin-2-yl)-1H-1,2,3-triazol-1-yl]-3-deoxy-2-O-methyl-1-thio-α-D-galactopyranoside]	880 nM
CO[C@@H]1[C@@H](n2cc(-c3cc(F)c(F)c(F)c3)nn2)[C@@H](O)[C@@H](CO)O[C@@H]1Sc1cnc(C#N)c(Cl)c1 [Example 45, 3-Chloro-2-cyanopyridin-5-yl 3-deoxy-3-[4-(3,4,5-trifluorophenyl)-1H-1,2,3-triazol-1-yl]-2-O-methyl-1-thio-α-D-galactopyranoside]	65 nM
CO[C@@H]1[C@@H](n2cc(-c3cc(F)c(F)c(F)c3)nn2)[C@@H](O)[C@@H](CO)O[C@@H]1Sc1cc(Cl)cnc1C#N [Example 46, 5-Chloro-2-cyanopyridin-3-yl 3-deoxy-3-[4-(3,4,5-trifluorophenyl)-1H-1,2,3-triazol-1-yl]-2-O-methyl-1-thio-α-D-galactopyranoside]	35 nM
CO[C@@H]1[C@@H](n2cc(-c3cc(F)c(Cl)c(F)c3)nn2)[C@@H](O)[C@@H](CO)O[C@@H]1Sc1cc(Cl)cnc1C#N [Example 47, 5-Chloro-2-cyanopyridin-3-yl 3-[4-(4-chloro-3,5-difluorophenyl)-1H-1,2,3-triazol-1-yl]-3-deoxy-2-O-methyl-1-thio-α-D-galactopyranoside]	34 nM
CO[C@@H]1[C@@H](n2cc(-c3ccc(Cl)c(F)c3)nn2)[C@@H](O)[C@@H](CO)O[C@@H]1Sc1cc(Cl)cnc1C#N [Example 48, 5-Chloro-2-cyanopyridin-3-yl 3-[4-(4-chloro-3-fluorophenyl)-1H-1,2,3-triazol-1-yl]-3-deoxy-2-O-methyl-1-thio-α-D-galactopyranoside]	31 nM
CO[C@@H]1[C@@H](n2cc(-c3cc(F)c(Cl)c(F)c3)nn2)[C@@H](O)[C@@H](CO)O[C@@H]1Sc1cc(C)cnc1C#N [Example 49, 2-Cyano-5-methylpyridin-3-yl 3-[4-(4-chloro-3,5-difluorophenyl)-1H-1,2,3-triazol-1-yl]-3-deoxy-2-O-methyl-1-thio-α-D-galactopyranoside]	50 nM
CO[C@@H]1[C@@H](n2cc(-c3cc(F)c(Cl)c(F)c3)nn2)[C@@H](O)[C@@H](CO)O[C@@H]1Sc1cc(Br)cnc1C#N [Example 50, 5-Bromo-2-cyanopyridin-3-yl 3-[4-(4-chloro-3,5-difluorophenyl)-1H-1,2,3-triazol-1-yl]-3-deoxy-2-O-methyl-1-thio-α-D-galactopyranoside]	23 nM
CO[C@@H]1[C@@H](n2cc(-c3ccc(Cl)c(F)c3)nn2)[C@@H](O)[C@@H](CO)O[C@@H]1Sc1cc(Br)cnc1C#N [Example 51, 5-Bromo-2-cyanopyridin-3-yl 3-[4-(4-chloro-3-fluorophenyl)-1H-1,2,3-triazol-1-yl]-3-deoxy-2-O-methyl-1-thio-α-D-galactopyranoside]	37 nM
C#Cc1cncc(S[C@H]2O[C@H](CO)[C@H](O)[C@H](n3cc(-c4cc(F)c(Cl)c(F)c4)nn3)[C@H]2OC)c1 [Example 54, 5-Ethynylpyridin-3-yl 3-[4-(4-chloro-3,5-difluorophenyl)-1H-1,2,3-triazol-1-yl]-3-deoxy-2-O-methyl-1-thio-α-D-galactopyranoside]	35 nM
CO[C@@H]1[C@@H](n2cc(-c3ccc(Cl)c(F)n3)nn2)[C@@H](O)[C@@H](CO)O[C@@H]1Sc1cc(Cl)cnc1C#N [Example 55, 5-Chloro-2-cyanopyridin-3-yl 3-[4-(5-chloro-6-fluoropyridin-2-yl)-1H-1,2,3-triazol-1-yl]-3-deoxy-2-O-methyl-1-thio-α-D-galactopyranoside]	350 nM
C#Cc1cnc(C#N)c(S[C@H]2O[C@H](CO)[C@H](O)[C@H](n3cc(-c4cc(F)c(Cl)c(F)c4)nn3)[C@H]2OC)c1 [Example 56, 2-Cyano-5-ethynylpyridin-3-yl 3-[4-(4-chloro-3,5-difluorophenyl)-1H-1,2,3-triazol-1-yl]-3-deoxy-2-O-methyl-1-thio-α-D-galactopyranoside]	28 nM
C#Cc1cnc(C#N)c(S[C@H]2O[C@H](CO)[C@H](O)[C@H](n3cc(-c4cc(F)c(C)c(F)c4)nn3)[C@H]2OC)c1 [Example 57, 2-Cyano-5-ethynylpyridin-3-yl 3-deoxy-3-[4-(3,5-difluoro-4-methylphenyl)-1H-1,2,3-triazol-1-yl]-2-O-methyl-1-thio-α-D-galactopyranoside]	35 nM
CO[C@@H]1[C@@H](n2cc(-c3cc(F)c(Cl)c(F)c3)nn2)[C@@H](O)[C@@H](CO)O[C@@H]1Sc1cnc(C(F)(F)F)c(C#N)c1 [Example 58, 5-Cyano-6-trifluoromethylpyridin-3-yl 3-[4-(4-chloro-3,5-difluorophenyl)-1H-1,2,3-triazol-1-yl]-3-deoxy-2-O-methyl-1-thio-α-D-galactopyranoside]	190 nM
CO[C@@H]1[C@@H](n2cc(-c3cc(F)c(F)c(F)c3)nn2)[C@@H](O)[C@@H](CO)O[C@@H]1Sc1cncc(C#N)c1 [Example 59, 5-Cyanopyridin-3-yl 3-deoxy-3-[4-(3,4,5-trifluorophenyl)-1H-1,2,3-triazol-1-yl]-2-O-methyl-1-thio-α-D-galactopyranoside]	76 nM
CO[C@@H]1[C@@H](n2cc(-c3cc(F)c(Cl)c(F)c3)nn2)[C@@H](O)[C@@H](CO)O[C@@H]1Sc1cncc(C#N)c1 [Example 60, 5-Cyanopyridin-3-yl 3-[4-(4-chloro-3,5-difluorophenyl)-1H-1,2,3-triazol-1-yl]-3-deoxy-2-O-methyl-1-thio-α-D-galactopyranoside]	80 nM
CO[C@@H]1[C@@H](n2cc(-c3cc(F)c(F)c(F)c3)nn2)[C@@H](O)[C@@H](CO)O[C@@H]1Sc1cc(Br)ccc1C(=O)N1CCC1 [Example 64, 2-(N-azetidinyl-carbonyl)-5-bromophenyl 3-deoxy-3-[4-(3,4,5-trifluorophenyl)-1H-1,2,3-triazol-1-yl]-2-O-methyl-1-thio-α-D-galactopyranoside]	16 nM
